# Reference: ChEMBL document CHEMBL1201862, “PubChem BioAssay data set” (2004)
#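 The compound was tested at five concentrations on cells cultured in 96-well plates, with a 48-hour exposure period. GI50 marks 50% less growth.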 Calls of active or inactive are those of the source. Cut-off read from the data, not from the text of the source: active = GI50 up to about 1.1 µM and inactive = higher.
# Key:
# Test in all cases: inhibition of tumour cell growth, NCI panel, 48 h
# KM12 = system: KM12
# HOP-62 = system: HOP-62
# SR = system: SR
# HT-29 = system: HT-29
# CAKI-1 = system: CAKI-1
# OVCAR-4 = system: OVCAR-4
# SF-539 = system: SF-539
# SK-MEL-28 = system: SK-MEL-28
# NCI/ADR-RES = system: NCI/ADR-RES
# TK-10 = system: TK-10
# ACHN = system: ACHN
# CCRF-CEM = system: CCRF-CEM
# COLO 205 = system: COLO 205
# NCI-H226 = system: NCI-H226
# Hs-578T = system: Hs-578T
# SF-295 = system: SF-295
# SNB-19 = system: SNB-19
# SF-268 = system: SF-268
# OVCAR-5 = system: OVCAR-5
# RXF 393 = system: RXF 393
# HCT-116 = system: HCT-116
# MDA-MB-231 = system: MDA-MB-231
# SN12C = system: SN12C
# SK-MEL-2 = system: SK-MEL-2
# DU-145 = system: DU-145
# SW-620 = system: SW-620
# U-251 = system: U-251
# UO-31 = system: UO-31
# T47D = system: T47D
# K562 = system: K562
# A549 = system: A549
# HCC 2998 = system: HCC 2998
# MDA-MB-435 = system: MDA-MB-435
# HCT-15 = system: HCT-15
# 786-0 = system: 786-0
# BT-549 = system: BT-549
# OVCAR-8 = system: OVCAR-8
# A498 = system: A498
# NCI-H460 = system: NCI-H460
# SNB-75 = system: SNB-75
# MDA-N = system: MDA-N
# UACC-62 = system: UACC-62
# HOP-92 = system: HOP-92
# IGROV-1 = system: IGROV-1
# M14 = system: M14
# OVCAR-3 = system: OVCAR-3
# UACC-257 = system: UACC-257
# Malme-3M = system: Malme-3M
# HL-60 = system: HL-60
# PC-3 = system: PC-3
# RPMI-8226 = system: RPMI-8226
# MOLT-4 = system: MOLT-4
# NCI-H23 = system: NCI-H23
# EKVX = system: EKVX
# SK-MEL-5 = system: SK-MEL-5
# MCF7 = system: MCF7
# LOX IMVI = system: LOX IMVI
# NCI-H522 = system: NCI-H522
# SK-OV-3 = system: SK-OV-3
compound,measurement,setting,value
COc1ccc(/N=N/C(=O)NC(CC(C)C)C(=O)NC(C)C(=O)O)cc1 (stereo unspecified),GI50,KM12,29 µM (inactive)
same,GI50,HOP-62,> 59.6 µM (inactive)
same,GI50,SR,12.7 µM (inactive)
same,GI50,HT-29,> 40 µM (inactive)
same,GI50,CAKI-1,> 100 µM (inactive)
same,GI50,OVCAR-4,> 69.5 µM (inactive)
same,GI50,SF-539,2.04 µM (inactive)
same,GI50,SK-MEL-28,17.1 µM (inactive)
same,GI50,NCI/ADR-RES,> 67.9 µM (inactive)
same,GI50,TK-10,> 29.9 µM (inactive)
same,GI50,ACHN,1.53 µM (inactive)
same,GI50,CCRF-CEM,6.28 µM (inactive)
same,GI50,COLO 205,3.2 µM (inactive)
same,GI50,NCI-H226,> 75.2 µM (inactive)
same,GI50,Hs-578T,> 79.3 µM (inactive)
same,GI50,SF-295,9.82 µM (inactive)
same,GI50,SNB-19,> 100 µM (inactive)
same,GI50,SF-268,> 24.3 µM (inactive)
same,GI50,OVCAR-5,> 100 µM (inactive)
same,GI50,RXF 393,> 100 µM (inactive)
same,GI50,HCT-116,> 34.4 µM (inactive)
same,GI50,MDA-MB-231,> 23.4 µM (inactive)
same,GI50,SN12C,> 20.4 µM (inactive)
same,GI50,SK-MEL-2,> 35.8 µM (inactive)
same,GI50,DU-145,6.25 µM (inactive)
same,GI50,SW-620,16.9 µM (inactive)
same,GI50,U-251,> 100 µM (inactive)
same,GI50,UO-31,2.38 µM (inactive)
same,GI50,T47D,3.63 µM (inactive)
same,GI50,K562,1.54 µM (inactive)
same,GI50,A549,3.32 µM (inactive)
same,GI50,HCC 2998,4.46 µM (inactive)
same,GI50,MDA-MB-435,1.98 µM (inactive)
same,GI50,HCT-15,1.3 µM
same,GI50,786-0,> 100 µM (inactive)
same,GI50,BT-549,52.8 µM (inactive)
same,GI50,OVCAR-8,> 43.1 µM (inactive)
same,GI50,A498,> 100 µM (inactive)
same,GI50,NCI-H460,9.66 µM (inactive)
same,GI50,SNB-75,> 100 µM (inactive)
same,GI50,MDA-N,10.8 µM (inactive)
same,GI50,UACC-62,0.968 µM (active)
same,GI50,HOP-92,> 100 µM (inactive)
same,GI50,IGROV-1,18.6 µM (inactive)
same,GI50,M14,1.29 µM (inactive)
same,GI50,OVCAR-3,28.8 µM (inactive)
same,GI50,UACC-257,23 µM (inactive)
same,GI50,Malme-3M,29.2 µM (inactive)
same,GI50,HL-60,6.22 µM (inactive)
same,GI50,PC-3,4.72 µM (inactive)
same,GI50,RPMI-8226,20.8 µM (inactive)
same,GI50,MOLT-4,4.22 µM (inactive)
same,GI50,NCI-H23,> 86.5 µM (inactive)
same,GI50,EKVX,30 µM (inactive)
same,GI50,SK-MEL-5,5.7 µM (inactive)
same,GI50,MCF7,27.5 µM (inactive)
same,GI50,LOX IMVI,4.68 µM (inactive)
CCCCN(c1ccccc1)c1ncnc2c1cnn2C,GI50,KM12,46 µM (inactive)
same,GI50,HOP-62,38.8 µM (inactive)
same,GI50,HT-29,29.9 µM (inactive)
same,GI50,CAKI-1,45.1 µM (inactive)
same,GI50,OVCAR-4,27.1 µM (inactive)
same,GI50,SK-MEL-28,38.6 µM (inactive)
same,GI50,NCI/ADR-RES,22.5 µM (inactive)
same,GI50,TK-10,39.2 µM (inactive)
same,GI50,ACHN,37.7 µM (inactive)
same,GI50,CCRF-CEM,21.3 µM (inactive)
same,GI50,COLO 205,> 100 µM (inactive)
same,GI50,NCI-H226,> 100 µM (inactive)
same,GI50,Hs-578T,22.4 µM (inactive)
same,GI50,SF-295,32.5 µM (inactive)
same,GI50,SNB-19,89.9 µM (inactive)
same,GI50,SF-268,34.8 µM (inactive)
same,GI50,OVCAR-5,47.4 µM (inactive)
same,GI50,RXF 393,23.4 µM (inactive)
same,GI50,HCT-116,40.6 µM (inactive)
same,GI50,MDA-MB-231,26.6 µM (inactive)
same,GI50,SN12C,65 µM (inactive)
same,GI50,SK-MEL-2,27.5 µM (inactive)
same,GI50,DU-145,53.6 µM (inactive)
same,GI50,SW-620,29.2 µM (inactive)
same,GI50,U-251,44.2 µM (inactive)
same,GI50,UO-31,40.6 µM (inactive)
same,GI50,T47D,20.2 µM (inactive)
same,GI50,K562,28.2 µM (inactive)
same,GI50,A549,51.2 µM (inactive)
same,GI50,HCC 2998,36.8 µM (inactive)
same,GI50,MDA-MB-435,37.5 µM (inactive)
same,GI50,HCT-15,35.4 µM
same,GI50,786-0,53.3 µM (inactive)
same,GI50,BT-549,20.3 µM (inactive)
same,GI50,OVCAR-8,41.2 µM (inactive)
same,GI50,A498,23.3 µM (inactive)
same,GI50,NCI-H460,31.6 µM (inactive)
same,GI50,SNB-75,11.7 µM (inactive)
same,GI50,MDA-N,42 µM (inactive)
same,GI50,UACC-62,31.2 µM (inactive)
same,GI50,HOP-92,25.7 µM (inactive)
same,GI50,IGROV-1,34.7 µM (inactive)
same,GI50,M14,48.2 µM (inactive)
same,GI50,NCI-H522,19.9 µM (inactive)
same,GI50,OVCAR-3,24.8 µM (inactive)
same,GI50,UACC-257,28.7 µM (inactive)
same,GI50,Malme-3M,25.2 µM (inactive)
same,GI50,HL-60,19.1 µM (inactive)
same,GI50,PC-3,27.5 µM (inactive)
same,GI50,RPMI-8226,14.3 µM (inactive)
same,GI50,MOLT-4,8.69 µM (inactive)
same,GI50,NCI-H23,30.1 µM (inactive)
same,GI50,EKVX,31.8 µM (inactive)
same,GI50,SK-MEL-5,> 100 µM (inactive)
same,GI50,MCF7,32.4 µM (inactive)
same,GI50,LOX IMVI,46.3 µM (inactive)
same,GI50,SK-OV-3,50.1 µM (inactive)
CC(C)CC1NC(=O)CCC(NC(=O)C(Cc2ccc(O)cc2)NC(=O)OCc2ccccc2)C(=O)NC(Cc2ccccc2)C(=O)NC(Cc2ccccc2)NC1=O (stereo unspecified),GI50,KM12,> 100 µM (inactive)
same,GI50,HOP-62,> 100 µM (inactive)
same,GI50,SR,> 100 µM (inactive)
same,GI50,HT-29,> 100 µM (inactive)
same,GI50,CAKI-1,> 100 µM (inactive)
same,GI50,OVCAR-4,> 100 µM (inactive)
same,GI50,SF-539,> 100 µM (inactive)
same,GI50,SK-MEL-28,> 100 µM (inactive)
same,GI50,NCI/ADR-RES,> 100 µM (inactive)
same,GI50,TK-10,> 100 µM (inactive)
same,GI50,ACHN,> 100 µM (inactive)
same,GI50,CCRF-CEM,> 100 µM (inactive)
same,GI50,COLO 205,> 100 µM (inactive)
same,GI50,NCI-H226,> 100 µM (inactive)
same,GI50,Hs-578T,> 100 µM (inactive)
same,GI50,SF-295,> 100 µM (inactive)
same,GI50,SNB-19,56.6 µM (inactive)
same,GI50,SF-268,> 100 µM (inactive)
same,GI50,OVCAR-5,> 100 µM (inactive)
same,GI50,RXF 393,> 100 µM (inactive)
same,GI50,HCT-116,> 100 µM (inactive)
same,GI50,MDA-MB-231,> 100 µM (inactive)
same,GI50,SN12C,> 100 µM (inactive)
same,GI50,SK-MEL-2,> 100 µM (inactive)
same,GI50,DU-145,> 100 µM (inactive)
same,GI50,SW-620,> 100 µM (inactive)
same,GI50,U-251,> 100 µM (inactive)
same,GI50,UO-31,> 100 µM (inactive)
same,GI50,T47D,> 100 µM (inactive)
same,GI50,K562,> 100 µM (inactive)
same,GI50,A549,> 100 µM (inactive)
same,GI50,HCC 2998,> 100 µM (inactive)
same,GI50,MDA-MB-435,> 100 µM (inactive)
same,GI50,HCT-15,> 100 µM
same,GI50,786-0,> 100 µM (inactive)
same,GI50,BT-549,> 100 µM (inactive)
same,GI50,OVCAR-8,> 100 µM (inactive)
same,GI50,NCI-H460,> 100 µM (inactive)
same,GI50,SNB-75,> 100 µM (inactive)
same,GI50,MDA-N,> 100 µM (inactive)
same,GI50,UACC-62,> 100 µM (inactive)
same,GI50,HOP-92,> 100 µM (inactive)
same,GI50,IGROV-1,> 100 µM (inactive)
same,GI50,M14,> 100 µM (inactive)
same,GI50,OVCAR-3,> 100 µM (inactive)
same,GI50,UACC-257,> 100 µM (inactive)
same,GI50,Malme-3M,> 100 µM (inactive)
same,GI50,HL-60,> 100 µM (inactive)
same,GI50,PC-3,> 100 µM (inactive)
same,GI50,RPMI-8226,> 100 µM (inactive)
same,GI50,MOLT-4,> 100 µM (inactive)
same,GI50,NCI-H23,> 100 µM (inactive)
same,GI50,EKVX,> 100 µM (inactive)
same,GI50,SK-MEL-5,> 100 µM (inactive)
same,GI50,MCF7,> 100 µM (inactive)
same,GI50,LOX IMVI,> 100 µM (inactive)
same,GI50,SK-OV-3,0.578 µM (active)
